{"source": "paper PMC5791972", "about": "(PLoS ONE, 2018)", "key": {"Kv7.1": {"target": "T1, Kv7.1 (Homo sapiens, UniProt P51787)", "T1 construct": "expressed in transfected cells", "test": "Ion channel selectivity patch clamp", "format": "cell-based", "conditions": "Voltage (+20 mV)"}, "dopamine transporter (h)": {"target": "T2, dopamine transporter (h) (Homo sapiens, UniProt Q01959)", "T2 construct": "host or cells: CHO cells", "T2 sequence (Q01959 whole entry)": "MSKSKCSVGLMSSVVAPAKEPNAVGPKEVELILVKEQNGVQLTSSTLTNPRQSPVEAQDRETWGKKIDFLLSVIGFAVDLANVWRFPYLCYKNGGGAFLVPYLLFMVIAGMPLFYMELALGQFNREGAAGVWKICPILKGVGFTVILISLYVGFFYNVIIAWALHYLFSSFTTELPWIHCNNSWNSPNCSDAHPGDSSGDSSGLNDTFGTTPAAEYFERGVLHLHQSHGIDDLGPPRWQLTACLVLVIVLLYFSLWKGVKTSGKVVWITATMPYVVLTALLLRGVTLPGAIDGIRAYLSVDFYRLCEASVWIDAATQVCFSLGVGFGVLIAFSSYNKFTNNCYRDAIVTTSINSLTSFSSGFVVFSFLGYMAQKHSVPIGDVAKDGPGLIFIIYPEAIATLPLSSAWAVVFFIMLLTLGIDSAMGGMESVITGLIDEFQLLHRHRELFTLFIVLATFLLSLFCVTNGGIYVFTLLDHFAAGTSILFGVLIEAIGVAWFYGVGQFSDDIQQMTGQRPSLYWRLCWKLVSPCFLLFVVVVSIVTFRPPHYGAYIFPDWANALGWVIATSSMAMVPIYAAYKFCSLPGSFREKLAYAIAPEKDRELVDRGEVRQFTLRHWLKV", "format": "binding", "conditions": "1.0E-06 M"}, "[1]": {"test": "Pharmacokinetic studies in mice", "conditions": "male, C57BL/6, mouse, in vivo"}, "AMPA": {"system": "AMPA", "format": "binding, rat", "conditions": "1.0E-06 M"}, "hTRPC1/hTRPC5": {"target": "T3, hTRPC1/hTRPC5 (Homo sapiens, UniProt Q9UL62)", "T3 construct": "The cDNAs for various full-length ion channels were subcloned into pcDNA5/TO; expressed in transfected cells; host or cells: heterologous co-expression", "T3 sequence (Q9UL62 whole entry)": "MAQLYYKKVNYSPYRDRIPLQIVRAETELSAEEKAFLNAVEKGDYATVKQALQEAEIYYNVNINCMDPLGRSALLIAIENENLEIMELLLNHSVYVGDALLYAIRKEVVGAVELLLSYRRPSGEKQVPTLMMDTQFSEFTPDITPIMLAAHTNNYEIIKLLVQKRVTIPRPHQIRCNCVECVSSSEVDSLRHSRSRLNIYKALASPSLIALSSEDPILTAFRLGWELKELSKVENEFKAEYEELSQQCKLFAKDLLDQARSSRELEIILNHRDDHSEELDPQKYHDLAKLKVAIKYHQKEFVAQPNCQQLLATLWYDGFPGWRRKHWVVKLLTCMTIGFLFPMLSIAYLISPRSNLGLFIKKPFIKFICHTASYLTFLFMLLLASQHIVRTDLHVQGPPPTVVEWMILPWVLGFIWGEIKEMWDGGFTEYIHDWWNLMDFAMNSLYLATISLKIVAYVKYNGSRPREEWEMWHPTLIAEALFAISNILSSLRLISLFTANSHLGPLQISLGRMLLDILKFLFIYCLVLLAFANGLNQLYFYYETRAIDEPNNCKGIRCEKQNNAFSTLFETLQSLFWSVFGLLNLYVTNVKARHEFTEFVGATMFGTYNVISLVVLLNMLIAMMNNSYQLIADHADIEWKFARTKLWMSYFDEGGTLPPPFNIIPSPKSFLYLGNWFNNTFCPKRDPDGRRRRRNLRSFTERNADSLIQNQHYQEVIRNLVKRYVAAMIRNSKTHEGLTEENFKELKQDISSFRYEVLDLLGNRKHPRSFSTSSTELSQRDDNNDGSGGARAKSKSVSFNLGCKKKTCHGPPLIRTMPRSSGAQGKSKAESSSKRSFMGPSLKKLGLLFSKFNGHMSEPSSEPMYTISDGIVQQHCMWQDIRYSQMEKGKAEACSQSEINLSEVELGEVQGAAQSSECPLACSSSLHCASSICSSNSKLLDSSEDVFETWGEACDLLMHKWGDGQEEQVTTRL", "T3 sequence (P48995 whole entry partner)": "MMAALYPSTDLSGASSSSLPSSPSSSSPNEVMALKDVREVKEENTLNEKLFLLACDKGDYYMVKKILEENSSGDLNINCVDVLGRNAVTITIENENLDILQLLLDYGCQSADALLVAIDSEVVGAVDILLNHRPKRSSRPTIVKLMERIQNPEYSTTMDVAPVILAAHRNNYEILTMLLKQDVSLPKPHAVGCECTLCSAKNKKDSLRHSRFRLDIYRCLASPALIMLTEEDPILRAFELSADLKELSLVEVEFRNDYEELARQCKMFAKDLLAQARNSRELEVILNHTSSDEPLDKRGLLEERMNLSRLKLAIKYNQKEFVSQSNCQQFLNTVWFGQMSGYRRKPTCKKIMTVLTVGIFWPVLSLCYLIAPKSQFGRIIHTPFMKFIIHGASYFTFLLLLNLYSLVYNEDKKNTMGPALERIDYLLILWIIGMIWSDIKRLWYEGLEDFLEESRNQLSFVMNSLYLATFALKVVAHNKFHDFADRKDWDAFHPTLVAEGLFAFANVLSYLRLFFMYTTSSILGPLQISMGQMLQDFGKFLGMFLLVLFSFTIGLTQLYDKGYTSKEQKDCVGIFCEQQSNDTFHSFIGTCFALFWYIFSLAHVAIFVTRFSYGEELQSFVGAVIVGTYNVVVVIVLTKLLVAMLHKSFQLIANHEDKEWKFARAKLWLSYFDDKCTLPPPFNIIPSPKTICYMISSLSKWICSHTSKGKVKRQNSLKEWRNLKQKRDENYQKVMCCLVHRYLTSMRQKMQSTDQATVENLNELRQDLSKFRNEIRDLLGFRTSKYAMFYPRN", "test": "Whole-cell manual patch clamp", "format": "cell-based"}, "human TRPC4 (hTRPC4)": {"target": "T4, human TRPC4 (hTRPC4) (Homo sapiens, UniProt Q9UBN4)", "T4 construct": "The cDNAs for various full-length ion channels were subcloned into pcDNA5/TO; expressed in transfected cells; M1R co-expressed in the calcium assay, M2R in patch clamp", "T4 sequence (Q9UBN4 1-893 isoform Q9UBN4-2)": "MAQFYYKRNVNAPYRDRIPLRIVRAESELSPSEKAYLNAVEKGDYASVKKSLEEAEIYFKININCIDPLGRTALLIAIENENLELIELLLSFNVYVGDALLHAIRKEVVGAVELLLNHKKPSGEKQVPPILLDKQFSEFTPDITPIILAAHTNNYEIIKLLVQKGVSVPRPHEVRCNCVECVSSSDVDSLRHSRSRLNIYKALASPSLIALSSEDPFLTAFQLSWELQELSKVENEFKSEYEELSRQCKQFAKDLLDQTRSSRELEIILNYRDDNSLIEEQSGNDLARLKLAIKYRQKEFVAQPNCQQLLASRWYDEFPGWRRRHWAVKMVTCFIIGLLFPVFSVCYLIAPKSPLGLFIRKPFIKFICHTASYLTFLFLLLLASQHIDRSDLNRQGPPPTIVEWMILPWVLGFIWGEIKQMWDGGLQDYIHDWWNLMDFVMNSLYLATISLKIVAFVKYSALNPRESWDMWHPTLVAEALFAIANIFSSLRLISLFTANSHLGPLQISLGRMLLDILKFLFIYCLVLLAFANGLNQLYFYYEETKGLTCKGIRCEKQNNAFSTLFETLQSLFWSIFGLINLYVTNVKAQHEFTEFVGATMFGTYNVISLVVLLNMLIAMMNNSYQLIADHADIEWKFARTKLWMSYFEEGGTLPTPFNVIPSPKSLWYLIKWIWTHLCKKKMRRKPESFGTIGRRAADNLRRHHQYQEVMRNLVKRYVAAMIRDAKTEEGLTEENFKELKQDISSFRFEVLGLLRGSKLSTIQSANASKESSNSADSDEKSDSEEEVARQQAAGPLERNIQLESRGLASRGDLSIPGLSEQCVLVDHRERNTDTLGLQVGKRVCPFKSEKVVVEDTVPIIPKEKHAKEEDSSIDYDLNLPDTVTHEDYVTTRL", "test": "Fluorometric calcium influx assay", "format": "cell-based", "conditions": "1 pM to 1 μM, n = 8"}, "Y1 (h)": {"target": "T5, Y1 (h) (Homo sapiens, UniProt P25929)", "T5 construct": "(endogenous); host or cells: SK-N-MC cells", "T5 sequence (P25929 1-384)": "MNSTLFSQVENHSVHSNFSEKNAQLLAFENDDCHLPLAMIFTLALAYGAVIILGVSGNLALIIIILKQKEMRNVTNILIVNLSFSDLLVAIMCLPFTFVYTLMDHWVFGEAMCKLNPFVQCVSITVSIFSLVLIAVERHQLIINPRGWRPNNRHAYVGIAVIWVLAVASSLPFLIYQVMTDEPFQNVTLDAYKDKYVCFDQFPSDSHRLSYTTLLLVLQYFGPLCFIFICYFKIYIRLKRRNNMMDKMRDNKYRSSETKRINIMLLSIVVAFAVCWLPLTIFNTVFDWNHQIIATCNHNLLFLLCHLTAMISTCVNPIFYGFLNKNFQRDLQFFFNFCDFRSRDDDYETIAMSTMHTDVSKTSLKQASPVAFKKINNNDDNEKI", "format": "binding", "conditions": "1.0E-06 M"}, "PDE3A (h)": {"target": "PDE3A (h) (Homo sapiens, UniProt Q14432)", "sequence (Q14432 whole entry)": "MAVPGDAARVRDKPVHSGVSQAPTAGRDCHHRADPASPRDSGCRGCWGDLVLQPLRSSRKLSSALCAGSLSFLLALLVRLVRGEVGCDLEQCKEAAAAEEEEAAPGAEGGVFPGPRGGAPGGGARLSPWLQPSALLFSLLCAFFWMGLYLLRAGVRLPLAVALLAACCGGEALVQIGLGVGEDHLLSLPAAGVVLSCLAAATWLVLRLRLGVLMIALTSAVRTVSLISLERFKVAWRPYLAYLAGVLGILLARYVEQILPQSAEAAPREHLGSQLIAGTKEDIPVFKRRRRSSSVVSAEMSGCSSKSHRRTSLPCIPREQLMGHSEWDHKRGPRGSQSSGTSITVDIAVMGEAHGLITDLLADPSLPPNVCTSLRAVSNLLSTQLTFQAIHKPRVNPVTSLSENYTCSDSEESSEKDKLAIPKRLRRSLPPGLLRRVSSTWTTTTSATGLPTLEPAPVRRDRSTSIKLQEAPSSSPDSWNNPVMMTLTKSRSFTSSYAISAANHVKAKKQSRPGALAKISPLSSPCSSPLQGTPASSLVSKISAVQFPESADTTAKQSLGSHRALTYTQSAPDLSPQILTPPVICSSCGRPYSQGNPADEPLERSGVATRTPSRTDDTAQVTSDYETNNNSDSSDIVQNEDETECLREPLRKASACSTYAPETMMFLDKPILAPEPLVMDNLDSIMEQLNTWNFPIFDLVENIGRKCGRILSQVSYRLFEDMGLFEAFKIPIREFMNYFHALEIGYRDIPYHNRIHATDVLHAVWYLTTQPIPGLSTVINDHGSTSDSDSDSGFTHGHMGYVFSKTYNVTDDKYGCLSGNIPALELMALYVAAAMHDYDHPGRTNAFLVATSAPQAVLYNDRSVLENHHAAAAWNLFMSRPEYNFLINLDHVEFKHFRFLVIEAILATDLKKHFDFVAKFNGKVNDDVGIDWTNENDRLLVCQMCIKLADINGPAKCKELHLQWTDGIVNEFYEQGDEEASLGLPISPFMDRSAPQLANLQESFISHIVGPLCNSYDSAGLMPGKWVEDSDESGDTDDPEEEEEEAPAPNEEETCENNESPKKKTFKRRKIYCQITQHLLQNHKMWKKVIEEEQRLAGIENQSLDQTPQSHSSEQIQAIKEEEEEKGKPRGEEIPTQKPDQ", "test": "biochemical", "conditions": "1.0E-06 M"}, "hERG": {"target": "hERG (Homo sapiens, UniProt Q12809)", "test": "Ion channel selectivity patch clamp"}, "ZAP70 kinase (h)": {"target": "T6, ZAP70 kinase (h) (Homo sapiens, UniProt P43403)", "T6 construct": "host or cells: insect cells", "T6 sequence (P43403 1-619)": "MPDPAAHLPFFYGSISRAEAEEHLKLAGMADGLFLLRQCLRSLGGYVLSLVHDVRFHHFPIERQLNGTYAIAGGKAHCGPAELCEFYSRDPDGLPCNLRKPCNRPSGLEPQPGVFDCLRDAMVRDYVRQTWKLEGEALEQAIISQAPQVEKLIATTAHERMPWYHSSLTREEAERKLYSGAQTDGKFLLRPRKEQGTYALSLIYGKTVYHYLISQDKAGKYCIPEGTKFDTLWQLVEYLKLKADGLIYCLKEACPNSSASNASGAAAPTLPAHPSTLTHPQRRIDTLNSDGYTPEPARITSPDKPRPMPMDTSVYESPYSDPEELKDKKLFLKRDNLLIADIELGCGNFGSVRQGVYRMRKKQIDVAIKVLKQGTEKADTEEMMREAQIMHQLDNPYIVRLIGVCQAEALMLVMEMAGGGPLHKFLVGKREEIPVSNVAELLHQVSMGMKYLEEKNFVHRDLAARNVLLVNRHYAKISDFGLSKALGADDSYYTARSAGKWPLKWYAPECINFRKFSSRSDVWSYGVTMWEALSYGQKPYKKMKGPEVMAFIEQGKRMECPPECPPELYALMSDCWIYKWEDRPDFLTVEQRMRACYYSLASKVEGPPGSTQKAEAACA", "test": "biochemical", "conditions": "1.0E-06 M"}, "Kv1.3": {"target": "T7, Kv1.3 (Homo sapiens, UniProt P22001)", "T7 construct": "expressed in transfected cells", "test": "Ion channel selectivity patch clamp", "format": "cell-based", "conditions": "Voltage (+20 mV)"}, "A2A (h)": {"target": "A2A (h) (Homo sapiens, UniProt P29274)", "sequence (P29274 whole entry)": "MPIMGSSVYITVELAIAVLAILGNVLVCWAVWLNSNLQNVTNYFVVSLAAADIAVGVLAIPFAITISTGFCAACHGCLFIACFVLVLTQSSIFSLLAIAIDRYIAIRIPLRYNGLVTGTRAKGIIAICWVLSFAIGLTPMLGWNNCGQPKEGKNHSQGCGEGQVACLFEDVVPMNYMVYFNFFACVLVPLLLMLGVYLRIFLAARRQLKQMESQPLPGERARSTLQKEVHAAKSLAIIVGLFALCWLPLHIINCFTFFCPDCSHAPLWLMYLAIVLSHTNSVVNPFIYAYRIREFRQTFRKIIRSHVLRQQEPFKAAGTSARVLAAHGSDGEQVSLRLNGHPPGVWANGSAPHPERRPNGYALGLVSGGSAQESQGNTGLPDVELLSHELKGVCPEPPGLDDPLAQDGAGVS", "conditions": "1.0E-06 M"}, "CaMK2α (h)": {"target": "CaMK2α (h) (Homo sapiens, UniProt Q9UQM7)", "test": "enzyme assay", "format": "biochemical", "conditions": "1.0E-06 M"}, "[2]": {"conditions": "Swiss Webster, mouse, iv, 1 mg/kg"}, "[3]": {"conditions": "Swiss Webster, mouse, po, 10 mg/kg"}, "[4]": {"conditions": "male, C57BL/6, mouse, iv, 1 mg/kg"}, "[5]": {"conditions": "male, C57BL/6, mouse, po, 10 mg/kg"}}, "note": "Like-named read-outs stand apart in the source and are kept apart here.", "data": [{"smiles": "Cn1c(=O)n(CCCO)c(=O)c2c1nc(Oc1cccc(Cl)c1)n2Cc1ccc(Cl)cc1", "note": "[HC-070]", "values": [{"measurement": "IC50", "setting": "Kv7.1", "value": "> 1.9", "unit": "µM"}, {"measurement": "inhibition at 1 µM", "setting": "dopamine transporter (h); read-out: % Inhibition 1st", "value": 8.9, "unit": "%"}, {"measurement": "inhibition at 1 µM", "setting": "dopamine transporter (h); read-out: % Inhibition 2nd", "value": 8.6, "unit": "%"}, {"measurement": "inhibition at 1 µM", "setting": "dopamine transporter (h); read-out: % Inhibition Mean", "value": 8.8, "unit": "%"}, {"measurement": "Vd", "setting": "in vivo; [2]", "value": 2.2, "unit": "L/kg"}, {"measurement": "clearance", "setting": "in vivo; [2]", "value": 11, "unit": "mL/min/kg"}, {"measurement": "half-life", "setting": "in vivo; [2]", "value": 3.6, "unit": "h"}, {"measurement": "Tmax", "setting": "in vivo; [3]", "value": 1, "unit": "h"}, {"measurement": "half-life", "setting": "in vivo; [3]", "value": 2.7, "unit": "h"}, {"measurement": "Vd", "setting": "in vivo; [4]", "value": 1.5, "unit": "L/kg"}, {"measurement": "clearance", "setting": "in vivo; [4]", "value": 13, "unit": "mL/min/kg"}, {"measurement": "concentration at 2 h", "setting": "in vivo; male, C57BL/6, mouse, iv, 1 mg/kg, CBR (concentration in brain)", "value": "299 ± 11", "unit": "nM"}, {"measurement": "concentration at 2 h", "setting": "in vivo; male, C57BL/6, mouse, iv, 1 mg/kg, CPL (concentration in plasma)", "value": "339 ± 66", "unit": "nM"}, {"measurement": "Cmax", "setting": "in vivo; [5]", "value": 937, "unit": "nM"}, {"measurement": "Tmax", "setting": "in vivo; [5]", "value": 1, "unit": "h"}, {"measurement": "concentration at 2 h", "setting": "in vivo; male, C57BL/6, mouse, po, 10 mg/kg, CBR (concentration in brain)", "value": "525 ± 72", "unit": "nM"}, {"measurement": "concentration at 2 h", "setting": "in vivo; male, C57BL/6, mouse, po, 10 mg/kg, CPL (concentration in plasma)", "value": "583 ± 108", "unit": "nM"}, {"measurement": "half-life", "setting": "[1]; iv, 1 mg/kg", "value": 3.5, "unit": "h"}, {"measurement": "half-life", "setting": "[1]; po, 10 mg/kg", "value": 3.3, "unit": "h"}]}, {"smiles": "Cn1c(=O)n(CCCO)c(=O)c2c1nc(Oc1cccc(OC(F)(F)F)c1)n2Cc1ccc(Cl)cc1", "note": "[HC-608]", "values": [{"measurement": "% Inhibition 1st", "setting": "AMPA", "value": -2.1, "unit": "%"}, {"measurement": "% Inhibition 2nd", "setting": "AMPA", "value": -9.2, "unit": "%"}, {"measurement": "% Inhibition Mean", "setting": "AMPA", "value": -5.6, "unit": "%"}, {"measurement": "IC50", "setting": "hTRPC1/hTRPC5; 20 μM carbachol/M1R", "value": "~0.0047", "unit": "µM"}, {"measurement": "IC50", "setting": "hTRPC1/hTRPC5; La3+ (80 μM)", "value": "~0.0014", "unit": "µM"}, {"measurement": "IC50", "setting": "human TRPC4 (hTRPC4)", "value": "0.0325 ± 0.0018", "unit": "µM"}, {"measurement": "inhibition at 1 µM", "setting": "Y1 (h); read-out: % Inhibition 1st", "value": -12.8, "unit": "%"}, {"measurement": "inhibition at 1 µM", "setting": "Y1 (h); read-out: % Inhibition 2nd", "value": -14.1, "unit": "%"}, {"measurement": "inhibition at 1 µM", "setting": "Y1 (h); read-out: % Inhibition Mean", "value": -13.4, "unit": "%"}, {"measurement": "inhibition at 1 µM", "setting": "PDE3A (h); read-out: % Inhibition 1st", "value": 3.1, "unit": "%"}, {"measurement": "inhibition at 1 µM", "setting": "PDE3A (h); read-out: % Inhibition 2nd", "value": 0.2, "unit": "%"}, {"measurement": "inhibition at 1 µM", "setting": "PDE3A (h); read-out: % Inhibition Mean", "value": 1.7, "unit": "%"}, {"measurement": "IC50", "setting": "hERG", "value": "1.15 ± 0.13", "unit": "µM"}, {"measurement": "inhibition at 1 µM", "setting": "ZAP70 kinase (h); read-out: % Inhibition 1st", "value": -1.6, "unit": "%"}, {"measurement": "inhibition at 1 µM", "setting": "ZAP70 kinase (h); read-out: % Inhibition 2nd", "value": -3, "unit": "%"}, {"measurement": "inhibition at 1 µM", "setting": "ZAP70 kinase (h); read-out: % Inhibition Mean", "value": -2.3, "unit": "%"}, {"measurement": "inhibition at 1 µM", "setting": "dopamine transporter (h); read-out: % Inhibition 1st", "value": 22.8, "unit": "%"}, {"measurement": "inhibition at 1 µM", "setting": "dopamine transporter (h); read-out: % Inhibition 2nd", "value": 37.1, "unit": "%"}, {"measurement": "inhibition at 1 µM", "setting": "dopamine transporter (h); read-out: % Inhibition Mean", "value": 29.9, "unit": "%"}, {"measurement": "IC50", "setting": "Kv1.3", "value": "1.05 ± 0.34", "unit": "µM"}, {"measurement": "% Inhibition 1st", "setting": "A2A (h)", "value": 20.8, "unit": "%"}, {"measurement": "% Inhibition 2nd", "setting": "A2A (h)", "value": 31.1, "unit": "%"}, {"measurement": "% Inhibition Mean", "setting": "A2A (h)", "value": 25.9, "unit": "%"}, {"measurement": "inhibition at 1 µM", "setting": "CaMK2α (h); read-out: % Inhibition 1st", "value": -4, "unit": "%"}, {"measurement": "inhibition at 1 µM", "setting": "CaMK2α (h); read-out: % Inhibition 2nd", "value": 2.8, "unit": "%"}, {"measurement": "inhibition at 1 µM", "setting": "CaMK2α (h); read-out: % Inhibition Mean", "value": -0.6, "unit": "%"}]}]}
